Measurements: patent US9527859B2, “Amidopyridine derivative and use thereof” (Mitsubishi Tanabe Pharma Corporation, priority 2012, dated 2016)

System: Salmonella typhimurium TA104 strain
Type: cell-based
Procedure: Genotoxicity Test Using Salmonella typhimurium TA104 Strain Carrying a Reporter Gene Under the Control of DNA Repair Enzyme recN (Vitotox Test)
To prepare agents for stock of tester strain, Amp solution (50 mg/mL) and Tet solution (10 mg/mL) were prepared, and then LB-agar plate (35 mg/mL+Amp (100 μg/mL)+Tet ([…])) was prepared, and LB medium (20 mg/mL+Amp (100 μg/mL)+Tet (20 μg/mL)) was prepared. Then, LB medium for pre-incubation (10 mg/mL), LB medium for test (4 mg/mL) and enhancer reagent (50 mg (CaCl2.H2O)/mL) were prepared.
Freezing stock of bacterial strain was thawed to be streaked on LB-agar plate, and incubated in an incubator (TITEC, BIO-SHAKER BR-15) at 37° C. overnight. […]
A solution for positive control was prepared as below. […] When the test compound was completely dissolved, the highest concentration as prepared was determined to be a highest dose, and when a precipitate was found, a homogeneous suspension which was able to be pipetted was determined to be a highest dose.
After a fluorescent and luminescent photometer (Thermo Labsystem, Fluoroskan Ascent FL), plate and medium for test were set up, Genox and Cytox reaction solutions were prepared as below. Dilution factor as well as requisite amounts for medium for test, pre-incubation strain solution, Enhancer Reagent and S9 mix were calculated so that OD590 was set as about 0.03 for each culture solution. […]

Nc1cnc(N2CCC(O)CC2)c(C2CC2)c1 [1-(5-amino-3-cyclopropylpyridin-2-yl)piperidin-4-ol]
Genotoxicity (Vitotox test): negative
